What was measured:
[1] = target: human catalytic domain HDAC4 protein (Homo sapiens, UniProt P56524, A743G/DEL730-739/DEL742-742); experiment: Inhibition of HDAC4 catalytic domain enzymatic activity, Boc-Lys(Tfa)-AMC substrate, fluorescence; conditions: Class IIa selective substrate Boc-Lys(Tfa)-AMC, read-out: Biochemical HDAC-4 IC50;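 also: trypsin releases AMC from deacetylated substrate, fluorescence tracks enzyme activity, 15 min reaction at 37 °C, 100% activity defined by DMSO-only control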
[2] = test system: cellular histone deacetylase enzymatic activity in Jurkat E6-1 cells; experiment: Inhibition of cellular HDAC activity, Boc-Lys(Tfa)-AMC substrate, in Jurkat E6-1 cells; assay type: cell-based; conditions: Homo sapiens, Class IIa selective substrate Boc-Lys(Tfa)-AMC
Excerpt: The potency of Class IIa Histone Deacetylase (HDAC) inhibitors is quantified by measuring the cellular histone deacetylase enzymatic activity using the Class IIa selective substrate, Boc-Lys(Tfa)-AMC. After penetration in Jurkat E6-1 cells, the substrate is deacetylated to Boc-Lys-AMC. After cell lysis and cleavage by trypsin, the fluorophore AMC is released from the deacetylated substrate only. The fluoresence of the sample is directly related to the histone deacetylase activity in the sample.
Jurkat E6.1 Cell Culture and Plating.
Jurkat E6.1 cells are cultured according to standard cell culture protocols in Jurkat E6.1 Growth Media (RPMI without phenol red, 10% FBS, 10 mM HEPES, and 1 mM Sodium Pyruvate). Jurkat E6.1 cells are counted using a Coulter Counter and resuspended in Jurkat E6.1 growth media at a concentration of 75,000 cells/35 μl. 35 μl or 75,000 cells is seeded into Greiner microtitre assay plates. The plates are then incubated at 37° C. and 5% CO2 while other assay components are being prepared.
Serially Dilute HDAC Inhibitor Compounds.
Serial dilutions of the HDAC inhibitors and control reference compound (1-(5-(3-((4-(1,3,4-oxadiazol-2-yl)phenoxy)methyl)-1,2,4-oxadiazol-5-yl)thiophen-2-yl)-2,2,2-trifluoroethanone) are made by first resuspending the lyophilized compound to a final concentration of 10 mM in 100% DMSO. Stocks of 70 μl aliquots of the 10 mM compound in DMSO are prepared and stored at −20° C. From one stock aliquot of each compound to be tested and the reference compound, a 16-point serial dilution is prepared according to Table 7 using a 125 μl 16-channel Matrix multi-channel pipette.
2 μl (200×) of each diluted solution and each control (full activity: 100% DMSO alone or full inhibition 1 mM) is stamped into V-bottom polypropylene 384-well compound plates using either the Bravo, Janus, or […] 16-channel Matrix multi-channel pipette. Each well with the 200× compound solution is diluted 1:20 by the addition of 38 μl Jurkat assay buffer+DMSO (9.5% DMSO, RPMI without phenol red, 0.09% FBS, 9 mM Hepes, and 0.9 mM Sodium Pyruvate equilibrated to room temperature)
Prepare 5× (500 μM) Boc-Lys(Tfa)-AMC Substrate.
5× (500 μM) substrate is prepared just prior to the addition to the assay. The 5× substrate is prepared by diluting a 100 mM Boc-Lys(Tfa)-AMC in DMSO solution 1:200 by adding it drop-wise to Jurkat assay medium (RPMI without phenol red, 0.1% FBS, 10 mM Hepes, and 1 mM Sodium Pyruvate equilibrated to 37° C.) while vortexing at slow speed to prevent precipitation.
10 ml of 3× lysis buffer is prepared with 8.8 ml of 3× stock lysis buffer (50 mM Tris-HCl, pH 8.0, 137 mM NaCl, 2.7 mM KCl, 1 mM MgCl2, 1% Nonidet P40 Substitute equilibrated to room temperature) and 1.2 ml of 3 mg/ml Trypsin equilibrated to room temperature.
5 μl of each solution of 1:20 diluted compound from above is transferred to the Greiner microtitre assay plates with 75,000 cells/well using the Bravo. Cells are then incubated for 2 hours at 37° C. and 5% CO2. The assay is then started by adding 10 μl of 5× (500 μM) substrate to the assay plate using either the Bravo or 16-channel Matrix multi-channel pipette. The cells are then incubated for 3 hours at 37° C. and 5% CO2. Next, 25 μl of 3× lysis buffer is added to each well using either the 125 μl 16 channel pipette or the Bravo. The assay plate is then incubated overnight (15-16 hours) at 37° C. and 5% CO2. The following day, the plates are shaken on an orbital shaker for 1 minute at 900 rpm. Finally the top read fluorescence (Excitation: 355 nm, Emission: 460 nm) is measured using PerkinElmer EnVision.

| Compound | IC50 [1] [µM] | IC50 [2] [µM] |
| --- | --- | --- |
| Cc1ccccc1[C@H]1[C@H](C(=O)NO)[C@@H]1c1ccccc1 (racemic) [Compound 18a, (1R*,2R*,3R*)—N-Hydroxy-2-phenyl-3-o-tolylcyclopropanecarboxamide] | 1.72 | 13.2 |
| O=C(NO)[C@@H]1[C@H](c2ccccc2)[C@H]1c1cccc(Br)c1 (racemic) [Compound 16b, (1R*,2R*,3R*)-2-(3-Bromophenyl)-N-hydroxy-3-phenylcyclopropanecarboxamide] | 0.07 | 1.41 |
| O=C(NO)[C@@H]1[C@H](c2ccccc2)[C@H]1c1ccc(-n2cccn2)cc1 (racemic) [Compound 65, (1R*,2R*,3R*)-2-(4-(1H-pyrazol-1-yl)phenyl)-N-hydroxy-3-phenylcyclopropanecarboxamide] | 0.09 | 0.97 |
| CN1CCN(c2ccc([C@H]3[C@H](C(=O)NO)[C@@H]3c3ccccc3)cc2)CC1 (racemic) [Compound 56i, (1R*,2R*,3R*)—N-Hydroxy-2-(4-(4-methylpiperazin-1-yl)phenyl)-3-phenylcyclopropanecarboxamide] | 0.14 | 1.31 |
| Cc1ccn(-c2ccc([C@H]3[C@H](C(=O)NO)[C@@H]3c3ccccc3)cc2)n1 [Compound 79, (1R,2R,3R)—N-Hydroxy-2-(4-(3-methyl-1H-pyrazol-1-yl)phenyl)-3-phenylcyclopropanecarboxamide] | 0.09 | 0.65 |
| O=C(NO)[C@@H]1[C@H](c2ccccc2)[C@H]1c1ccc(-c2cccc(OCc3ccccc3)c2)cc1 [Compound 54a, (1R,2R,3R)-2-(3′-(Benzyloxy)-[1,1′-biphenyl]-4-yl)-N-hydroxy-3-phenylcyclopropanecarboxamide] | 0.99 | 8.85 |
| C[C@@]1(C(=O)NO)[C@H](c2ccccc2)[C@H]1c1ccc(-c2ncc(F)cn2)cc1 (racemic) [Compound 63, (1R*,2S*,3S*)-2-(4-(5-Fluoropyrimidin-2-yl)phenyl)-N-hydroxy-1-methyl-3-phenylcyclopropanecarboxamide] | 0.27 | 1.55 |
| O=C(NO)[C@H]1[C@H](c2cc(C3CC3)nc(C3CC3)c2)[C@H]1c1ccccc1F [Compound 88, (1S,2R,3R)-2-(2,6-Dicyclopropylpyridin-4-yl)-3-(2-fluorophenyl)-N-hydroxycyclopropanecarboxamide] | 0.2 | 1.48 |
| O=C(NO)[C@@H]1[C@H](c2ccccc2)[C@H]1c1ccc(-c2ncc(C3CC3)cn2)cc1 (racemic) [Compound 50c, (1R*,2R*,3R*)-2-(4-(5-Cyclopropylpyrimidin-2-yl)phenyl)-N-hydroxy-3-phenylcyclopropanecarboxamide] | 0.22 | 0.81 |
| O=C(NO)[C@H]1[C@H](c2ccccc2)[C@H]1c1ccccc1F (racemic) [Compound 13, (1S*,2R*,3R)-2-(2-Fluorophenyl)-N-hydroxy-3-phenylcyclopropanecarboxamide] | 0.94 | 7.67 |
| O=C(NO)[C@@H]1[C@H](c2ccccc2)[C@H]1c1ccccc1Br (racemic) [Compound 16a, (1R*,2R*,3R*)-2-(2-Bromophenyl)-N-hydroxy-3-phenylcyclopropanecarboxamide] | 0.62 | 6.53 |
| CC(C)N1CCN(c2cccc([C@H]3[C@H](C(=O)NO)[C@@H]3c3ccccc3)c2)CC1 (racemic) [Compound 56b, (1R*,2R*,3R*)—N-Hydroxy-2-(3-(4-isopropylpiperazin-1-yl)phenyl)-3-phenylcyclopropanecarboxamide] | 1.43 | 5.08 |
| O=C(NO)[C@@H]1[C@H](c2ccccc2)[C@H]1c1ccc(-c2cnc(-c3ccccc3)o2)cc1 (racemic) [Compound 48, (1R*,2R*,3R*)—N-Hydroxy-2-phenyl-3-(4-(2-phenyloxazol-5-yl)phenyl)cyclopropanecarboxamide] | 0.28 | 1.26 |
| CC(C)N1CCN(c2ccc([C@H]3[C@H](C(=O)NO)[C@@H]3c3ccccc3)cc2)CC1 (racemic) [Compound 56a, (1R*,2R*,3R*)—N-Hydroxy-2-(4-(4-isopropylpiperazin-1-yl)phenyl)-3-phenylcyclopropanecarboxamide] | 0.09 | 0.76 |
| O=C(NO)[C@H]1[C@H](c2ccnc(C3CC3)c2)[C@H]1c1ccccc1F [Compound 28c, (1S,2R,3R)-2-(2-Cyclopropylpyridin-4-yl)-3-(2-fluorophenyl)-N-hydroxycyclopropanecarboxamide] | 0.04 | 0.53 |
| O=C(NO)[C@@H]1[C@H](c2ccccc2)[C@H]1c1ccn2cc(C(F)(F)F)nc2c1 [Compound 109, (1R,2R,3R)—N-Hydroxy-2-phenyl-3-(2-(trifluoromethyl)imidazo[1,2-a]pyridin-7-yl)cyclopropanecarboxamide] | 0.23 | 2.5 |
| O=C(NO)[C@@H]1[C@H](c2ccccc2)[C@H]1c1ccc(-c2ccnnc2)cc1 (racemic) [Compound 50g, (1R*,2R*,3R*)—N-Hydroxy-2-phenyl-3-(4-(pyridazin-4-yl)phenyl)cyclopropanecarboxamide] | 0.11 | 0.66 |
| O=C(NO)[C@@H]1[C@H](c2ccccc2)[C@H]1c1cccc(N2CCC(N3CCCC3)CC2)c1 (racemic) [Compound 56g, (1R*,2R*,3R*)—N-Hydroxy-2-phenyl-3-(3-(4-(pyrrolidin-1-yl)piperidin-1-yl)phenyl)cyclopropanecarboxamide] | 0.39 | 2.18 |
| O=C(NO)[C@@H]1[C@H](c2ccccc2)[C@H]1c1ccccc1F (racemic) [Compound 11b, (1R*,2R*,3R*)-2-(2-Fluorophenyl)-N-hydroxy-3-phenylcyclopropanecarboxamide] | 0.32 | 1.83 |
| CC(C)Oc1ccccc1[C@@H]1C(c2ccccc2)[C@H]1C(=O)NO (mixture of isomers) [Compound 11a, (1R,2R,3R*)—N-Hydroxy-2-(2-isopropoxyphenyl)-3-phenylcyclopropanecarboxamide] | 20.6 | 50 |
| O=C(NO)[C@@H]1[C@H](c2ccccc2)[C@H]1c1ccc(Br)cc1 (racemic) [Compound 16c, (1R*,2R*,3R*)-2-(4-Bromophenyl)-N-hydroxy-3-phenylcyclopropanecarboxamide] | 0.37 | 2.87 |
| O=C(NO)[C@@H]1[C@H](c2ccc(F)cc2)[C@H]1c1ccnc(C2CC2)c1 [Compound 28d, (1R,2R,3R)-2-(2-Cyclopropylpyridin-4-yl)-3-(4-fluorophenyl)-N-hydroxycyclopropanecarboxamide] | 0.12 | 0.79 |
| O=C(NO)[C@@H]1[C@H](c2cccc(F)c2)[C@H]1c1ccnc(C2CC2)c1 [Compound 100b, (1S,2R,3R)-2-(2-Cyclopropylpyridin-4-yl)-3-(3-fluorophenyl)-N-hydroxycyclopropanecarboxamide] | 0.02 | 0.42 |
| Cc1cnc(-c2cccc([C@H]3[C@H](C(=O)NO)[C@@H]3c3ccccc3)c2)nc1 [Compound 77, (1R,2R,3R)—N-Hydroxy-2-(3-(5-methylpyrimidin-2-yl)phenyl)-3-phenylcyclopropanecarboxamide] | 0.16 | 0.78 |
